Experimental data from patent US10577341B1, “Beraprost-314d monohydrate crystals and methods for preparation thereof” (CHIROGATE INTERNATIONAL INC., priority 2018, dated 2020).

What was measured:
[1] = Crystalline form transformation of Beraprost-314d monohydrate Form A to Form B, followed by XRPD after isothermal standing; type: physicochemical; settings: for XRPD pattern after heating (crystalline form): 24 hours
Method: X-ray Powder Diffraction (XRPD) Analysis: The XRPD patterns were collected on a Bruker D2 PHASER diffractometer with fixed divergence slits and 1D LYNXEYE detector. The samples (ca. 100 mg) were placed flat on a sample holder. The prepared samples were analyzed over a 2θ range from 5° to 50° with step size of 0.02 degrees and step time of 1 second using CuKα radiation at a power of 10 mA and 30 kV The CuKβ radiation was removed by a divergent beam nickel filter,
The critical temperature (T*). of crystalline form transformation of Beraprost-314d monohydrate Form A and Form B was determined. Crystalline Beraprost-314d monohydrate Form A (0.10 g, from Example 3) was placed in glass vials, and heated to 25° C., 27° C., 29° C., 31° C., 33° C., and 35° C. and isothermal stood for 24 hours.

[2] = Stability of anhydrous form versus monohydrate form of Beraprost-314d; assay and total impurities by HPLC after storage at 40° C.; type: physicochemical; settings: for Assay / Total Impurities: 40° C./60% RH, HPLC
Method: The Beraprost-314d monohydrate is stable at room temperature. For example, the formation of dimer and/or unwanted esterification byproducts by the presence of hydrates can be avoided. […] The assay and total impurities of Beraprost-314d monohydrate and anhydrous Beraprost-314d were measured by HPLC after treatment at 40° C., as shown in Table 3.

[3] = 3 days, listed as Beraprost-314d monohydrate, monohydrate

Row | Critical temperature (T*) of crystalline form transformation from Form A to Form B ([1]; isothermal standing for 24 hours, XRPD) | Assay ([2]; 1 day) | Total Impurities ([2]; 1 day) | Assay ([2]; 2 days) | Total Impurities ([2]; 2 days) | Assay [2, 3] | Total Impurities [2, 3] | Assay ([2]; 3 days, monohydrate) | Total Impurities ([2]; 3 days, monohydrate) | Assay ([2]; 3 days) | Total Impurities ([2]; 3 days) | SMILES | XRPD pattern after heating (crystalline form) ([1]; 25° C., 27° C. and 29° C.) | XRPD pattern after heating (crystalline form) ([1]; 31° C., 33° C. and 35° C.) | Stability compared with the anhydrous form ([2]; 40° C. for 3 days)
1 | about 30±5 °C |  |  |  |  |  |  |  |  |  |  | CC#CC[C@H](C)[C@H](O)/C=C/[C@@H]1[C@H]2c3cccc(CCCC(=O)O)c3O[C@H]2C[C@H]1O.O [Beraprost-314d monohydrate] | remain Form A without any Form B feature peaks | an intermediate state containing both Form A and Form B | 
2 |  | 99.89% | 0.17% | 99.77% | 0.25% | no apparent decrease | 0.33% | 99.69% | 0.33% |  |  | CC#CC[C@H](C)[C@H](O)/C=C/[C@@H]1[C@H]2c3cccc(CCCC(=O)O)c3O[C@H]2C[C@H]1O.O [Beraprost-314d Monohydrate, Beraprost-314d monohydrate] |  |  | more stable than the anhydrous Beraprost-314d
3 |  | 99.30% | 0.84% | 99.01% |  |  |  |  |  | 98.95% | 1.19% | CC#CC[C@H](C)[C@H](O)/C=C/[C@@H]1[C@H]2c3cccc(CCCC(=O)O)c3O[C@H]2C[C@H]1O [Anhydrous Beraprost-314d, Beraprost-314d] |  |  | 
